According to patent US6379400B1, “Dye compositions and methods of dyeing keratin fibers” (Wella Aktiengesellschaft, priority 1998, dated 2002):

Row | melting point [°C] | SMILES
1 | 97 to 100 | COCCNc1ccc([N+](=O)[O-])cc1C [Example 2, N-(2-methoxyethyl)-2-methyl-4-nitrophenylamine]
2 | 85 to 87 | COCCNc1ccc([N+](=O)[O-])cc1 [Example 1, N-(2-methoxyethyl)-4-nitro-phenylamine]
